Where two headings read alike, the source gives them in different places.
Molecular target: T1, F508delCFTR (Homo sapiens, UniProt P13569, DEL508-508)
T1 construct: expressed in transfected cells; host or cells: CFBE41o- human lung-derived epithelial cells (CFBE4lo-F508delCFTR-HRP), doxycycline-inducible
Assay: Cell Surface Expression-Horse Radish Peroxidase (CSE-HRP) Assay;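 as to Maximum % activity (with co-corrector): co-corrector and positive control are both the same reference corrector at 2 µM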;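 as to Maximum % activity (without co-corrector): percent of the 2 µM on-plate positive control corrector response above DMSO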
Assay type: cell-based
Conditions: for Maximum % activity (with co-corrector) / Emax: maximum at any tested concentration, normalized to on-plate positive control; for Emax: read-out: Maximum % activity (without co-corrector)

[1] = test compound without co-corrector, read-out: EC50 (without co-corrector)
[2] = with co-corrector (2 μM of 3-[(2R,4R)-4-({[1-(2,2-difluoro-1,3-benzodioxol-5-yl)cyclopropyl]carbonyl}amino)-7-methoxy-3,4-dihydro-2H-chromen-2-yl]benzoic acid), read-out: EC50 (with co-corrector)
[3] = CSE-HRP, test compound without co-corrector, read-out: EC50 (without co-corrector)
[4] = CSE-HRP, with co-corrector (2 μM of 3-[(2R,4R)-4-({[1-(2,2-difluoro-1,3-benzodioxol-5-yl)cyclopropyl]carbonyl}amino)-7-methoxy-3,4-dihydro-2H-chromen-2-yl]benzoic acid), read-out: EC50 (with co-corrector)
[5] = CSE-HRP, with co-corrector (2 μM)
[6] = test compound without co-corrector
[7] = with co-corrector (2 μM of 3-[(2R,4R)-4-({[1-(2,2-difluoro-1,3-benzodioxol-5-yl)cyclopropyl]carbonyl}amino)-7-methoxy-3,4-dihydro-2H-chromen-2-yl]benzoic acid)

T1 sequence (P13569 with tags, fused parts or gaps DEL508-508): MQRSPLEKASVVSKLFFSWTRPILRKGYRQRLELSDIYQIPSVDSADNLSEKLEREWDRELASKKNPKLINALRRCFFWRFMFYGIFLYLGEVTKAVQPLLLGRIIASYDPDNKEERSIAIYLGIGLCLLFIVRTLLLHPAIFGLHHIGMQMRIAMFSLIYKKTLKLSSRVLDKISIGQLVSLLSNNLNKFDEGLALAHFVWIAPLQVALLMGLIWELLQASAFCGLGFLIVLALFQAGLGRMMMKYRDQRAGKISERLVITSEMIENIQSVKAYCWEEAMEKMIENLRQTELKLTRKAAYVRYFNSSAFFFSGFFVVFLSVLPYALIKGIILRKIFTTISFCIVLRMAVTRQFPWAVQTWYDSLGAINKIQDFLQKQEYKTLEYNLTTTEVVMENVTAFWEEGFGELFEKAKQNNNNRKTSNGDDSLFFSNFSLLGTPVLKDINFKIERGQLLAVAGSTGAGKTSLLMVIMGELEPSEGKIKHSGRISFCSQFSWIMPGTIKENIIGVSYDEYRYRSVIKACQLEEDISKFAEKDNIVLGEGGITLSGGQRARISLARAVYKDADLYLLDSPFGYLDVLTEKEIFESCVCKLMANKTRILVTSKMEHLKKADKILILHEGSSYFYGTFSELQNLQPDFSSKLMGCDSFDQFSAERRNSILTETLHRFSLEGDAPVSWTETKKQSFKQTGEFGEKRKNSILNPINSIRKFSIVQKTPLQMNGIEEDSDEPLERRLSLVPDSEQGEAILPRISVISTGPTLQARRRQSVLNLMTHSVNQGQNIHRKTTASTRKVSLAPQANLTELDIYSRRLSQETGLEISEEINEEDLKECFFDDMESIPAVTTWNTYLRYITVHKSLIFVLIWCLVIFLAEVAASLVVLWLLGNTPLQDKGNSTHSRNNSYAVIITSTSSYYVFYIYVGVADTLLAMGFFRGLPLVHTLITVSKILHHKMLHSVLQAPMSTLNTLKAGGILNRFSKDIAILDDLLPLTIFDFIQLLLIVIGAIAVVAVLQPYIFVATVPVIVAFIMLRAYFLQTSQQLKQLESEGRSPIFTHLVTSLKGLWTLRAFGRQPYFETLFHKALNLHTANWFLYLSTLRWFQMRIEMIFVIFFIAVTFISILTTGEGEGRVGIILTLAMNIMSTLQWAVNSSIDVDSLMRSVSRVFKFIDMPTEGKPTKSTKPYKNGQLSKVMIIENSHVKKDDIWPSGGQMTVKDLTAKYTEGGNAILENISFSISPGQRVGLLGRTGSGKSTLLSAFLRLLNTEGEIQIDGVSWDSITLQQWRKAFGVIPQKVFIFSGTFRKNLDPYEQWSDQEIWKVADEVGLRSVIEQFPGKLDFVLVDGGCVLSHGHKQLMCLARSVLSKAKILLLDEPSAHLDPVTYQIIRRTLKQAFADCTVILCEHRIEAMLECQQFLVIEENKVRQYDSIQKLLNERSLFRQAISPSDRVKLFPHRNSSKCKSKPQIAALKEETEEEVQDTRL

| EC50 [1] [µM] | EC50 [2] [µM] | Maximum % activity (with co-corrector) (with co-corrector (2 μM)) | Emax (without co-corrector) [%] | EC50 [3] [µM] | EC50 [4] [µM] | Maximum % activity (with co-corrector) [5] | Emax (CSE-HRP, without co-corrector) [%] | Emax [6] [%] | Maximum % activity (with co-corrector) [7] | Compound |
| --- | --- | --- | --- | --- | --- | --- | --- | --- | --- | --- |
| 1 to 10 | 1 to 10 | ++ (≥150 and <350) | < 100 | – | – | – | – | – | – | COc1ccc(C(C)(C)C)cc1CN[C@H]1[C@H](C(C)(C)C)[C@@H](C(=O)NS(C)(=O)=O)N(C(=O)C2CCCCC2)[C@H]1c1ccccc1 [Example 58, (2S,3S,4S,5S)-3-tert-butyl-4-{[(5-tert-butyl-2-methoxyphenyl)methyl]amino}-1-(cyclohexanecarbonyl)-N-(methanesulfonyl)-5-phenylpyrrolidine-2-carboxamide] |
| – | – | – | – | < 1 | < 1 | +++ (≥350) | > 200 | – | – | COc1ccc(C2CCCC2)cc1CN[C@H]1[C@H](C(C)(C)C)[C@@H](C(=O)O)N(C(=O)C2CCCCC2)[C@H]1c1ccccc1 [II-193] |
| 1 to 10 | 1 to 10 | ++ (≥150 and <350) | < 100 | – | – | – | – | – | – | COc1cc(C(F)(F)F)cc(N[C@@H]2[C@@H](C(C)(C)OC)[C@H](C(=O)O)N(C(=O)C3CCCCC3)[C@@H]2c2ccccc2)n1 (racemic) [Example I-38] |
| 1 to 10 | < 1 | +++ (≥350) | > 200 | – | – | – | – | – | – | COc1ccc(C(C)(C)C)cc1CN[C@H]1[C@H](C(C)(C)C)[C@@H](C(=O)O)N(C(=O)OC(C)C)[C@H]1c1cccc(Cl)c1 [Example 86, (2S,3S,4S,5S)-3-tert-butyl-4-{[(5-tert-butyl-2-methoxyphenyl)methyl]amino}-5-(3-chlorophenyl)-1-{[(propan-2-yl)oxy]carbonyl}pyrrolidine-2-carboxylic acid] |
| > 10 | 1 to 10 | ++ (≥150 and <350) | – | – | – | – | – | < 100 | – | CC(C)(C)[C@H]1[C@H](Nc2cc(C#N)cc(Cl)n2)[C@H](c2ccccc2)N(C(=O)C2CCCCC2)[C@@H]1C(=O)O [III-146] |
| – | – | – | – | 1 to 10 | 1 to 10 | +++ (≥350) | 100 to 200 | – | – | COc1cc(Cl)ccc1CN[C@@H]1[C@@H](C(C)(C)C)[C@H](C(=O)O)N(C(=O)C2CCCOC2)[C@@H]1c1ccccc1N(C)C (mixture of isomers) [II-23] |
| – | – | – | – | 1 to 10 | 1 to 10 | +++ (≥350) | > 200 | – | – | COc1cc(Cl)ccc1CN[C@H]1[C@H](C(C)(C)C)[C@@H](C(=O)O)N(C(=O)[C@H](OC)c2ccccc2)[C@H]1c1ccccc1 (relative stereo) [II-54] |
| < 1 | < 1 | +++ (≥350) | > 200 | – | – | – | – | – | – | COc1ccc(C(C)(C)C)cc1CN[C@H]1[C@H](C(C)(C)C)[C@@H](C(=O)O)N(C(=O)C(OC)C2CCCCC2)[C@H]1c1ccccc1 (stereo partly shown) [Example I-160] |
| 1 to 10 | 1 to 10 | – | – | – | – | – | – | > 200 | +++ (≥350) | COc1ccc(C(C)(C)C)cc1CN[C@H]1[C@H](C(C)(C)C)[C@@H](C(=O)O)N(C(=O)C(C)C2CCCCO2)[C@H]1c1ccccc1 (stereo partly shown) [II-457] |
| – | – | – | – | 1 to 10 | 1 to 10 | +++ (≥350) | > 200 | – | – | COc1ccc(Cl)cc1CN[C@@H]1[C@@H](C(C)(C)C)[C@H](C(=O)O)N(C(=O)C2CCOC(C)(C)C2)[C@@H]1c1ccccc1N(C)C (mixture of isomers) [II-25] |
| 1 to 10 | 1 to 10 | – | – | – | – | – | – | > 200 | +++ (≥350) | CCC(CC)C(=O)N1[C@H](C(=O)O)[C@@H](C(C)(C)C)[C@H](NCc2cc(C(C)(C)C)ccc2OC)[C@@H]1c1ccccc1 [II-329] |
| – | – | – | – | 1 to 10 | < 1 | +++ (≥350) | > 200 | – | – | COc1cc2c(cc1CN[C@H]1[C@H](C(C)(C)C)[C@@H](C(=O)O)N(C(=O)C3CCCCC3)[C@H]1c1ccccc1)CCCC2 [II-125] |
| < 1 | < 1 | +++ (≥350) | 100 to 200 | – | – | – | – | – | – | COc1ncc(C2CCCC2)cc1CN[C@H]1[C@H](C(C)(C)OC)[C@@H](C(=O)O)N(C(=O)C2CCCCC2)[C@H]1c1ccccc1 [Example I-116] |
